Assay results from US20030171371A1, “Immunosuppressant n-acyles homoserine lactones” (priority 2000, published 2003).

Tests used:
murine spleen cells = details: literature report; cited from earlier work
[1] = system: TNF-a production by LPS-stimulated adherent murine peritoneal macrophages; details: literature report; cited from earlier work
[2] = system: TNF-alpha production from LPS-stimulated human PBMC; test: TNF-alpha production from LPS-stimulated human PBMC (sandwich ELISA); assay type: cell-based; details: FIG. 3, FIG. 5
Protocol: Bacterial lipopolysaccharide (LPS) stimulates the production of a variety of cytokines, including TNF-alpha, from human PBMC; these cytokines in turn influence the development of T cells, supporting a T helper 1 conducive milieu. Human PBMC prepared from whole blood by buoyant density centrifugation were resuspended in CTCM. […] Following incubation for 24 h at 37° C. in 5% CO2-air, the cell culture supernatants were collected and tested for TNF-alpha levels by ‘sandwich’ ELISA. Briefly, 96-well Nunc MaxiSorp (Life Technologies, Paisley, UK) plates were coated with 50 μl of a 2 μg/ml solution of mouse anti-human TNF-alpha monoclonal antibody (Pharmingen, UK) in 0.05 M carbonate/bicarbonate buffer, pH 9.6 overnight at 4° C. […] Following three washes with PBS-Tween, 50 μl of cell culture supernatants were added and incubated overnight at 4° C.; standard human TNF-alpha (Pharmingen, UK) ranging from 2000 to 31.25 pg/ml were included for each plate. […] Following four washes, the bound biotinylated antibody was detected with 50 μl of a 1:1,000 dilution of Streptavidin-peroxidase (Pharmingen, UK). At the end of an hour incubation at room temperature, the plates were thoroughly washed six times with PBS-Tween and the assay was developed by the addition of 100 μl of 0.1 mg/ml of tetramethyl benzidine subtrate (Sigma, Poole, UK) in 0.1 M sodium acetate buffer, pH 6 containing 0.03% H2O2. The enzyme reaction was stopped with 50 μl of 2.5 M H2SO4 after an incubation of 10 minutes at room temperature and the development was read at 450 nm with a spectrophotometric 96-well plate reader (Dynex).

murine splenocytes = test: ConA mitogen-stimulated proliferation of murine splenocytes ([3H]-thymidine incorporation); assay type: cell-based, mouse (BALB/c); details: for effect on ConA induced splenocyte proliferation (cpm vs concentration): FIG. 1
Protocol: Proliferation was assessed by the incorporation of [^3H]-thymidine into DNA. Eight-week-old female BALB/c mice were obtained from Harlan (Bicester, Oxon, UK) and given food and water ad libitum. Splenocyte suspensions were prepared by removing the spleens and placing them into RPMI 1640 medium. The spleens were forced through 70-μm-pore-size wire gauzes using the plunger from a 5-ml syringe to produce a single cell suspension. […] Leucocytes were washed twice with RPMI 1640 medium with 2% (vol/vol) foetal calf serum (FCS) and resuspended in complete cell culture medium (CTCM) consisting of RPMI 1640 medium with 5% FCS, 2 mM L-glutamine, and 5×10^−5 M 2-mercaptoethanol. HSL compounds were tested at doubling down dilutions ranging from 1 mM to 0.1 μM in a final volume of 200 μl of CTCM, containing ConA (Sigma, Poole, UK) at 1 μg/ml and 100,000 spleen cells. Following incubation for 48 h at 37° C. in 5% CO2-air, 0.25 μCi [^3H]-thymidine (Amersham) in 10 μl volume made up in RPMI 1640 medium was added and the cells were incubated for a further 24 h. Cells were harvested onto fibreglass filters with a Packard filtermate harvester. After the addition of 25 μl of MicroScint-O (Packard) to each well the filters were counted with the Packard TopCount scintillation counter.
Mitogen (Concanavalin A) induced murine splenocyte proliferation was indicated by the incorporation of tritated thymidine into the DNA in the mouse spleen cells as shown by counts per minute using the scintillation counter. The inhibitory effect of an HSL compound being tested on cell proliferation was indicated by a reduction in counts per minute.

human PBMC = test: ConA mitogen-stimulated proliferation of human PBMC ([3H]-thymidine incorporation); assay type: cell-based; details: FIG. 2
Protocol: II. ConA Mitogen-Stimulated Proliferation of Human PBMC
Blood specimens were obtained with consent from healthy human volunteers. Human peripheral blood mononuclear cells (PBMC) were isolated from heparinised whole blood by buoyant density centrifugation over Histopaque 1077 (Sigma, Poole, UK) at 600 g for 20 minutes. PBMC harvested from the ‘buffy’ layers were washed twice with RPMI 1640 medium and resuspended in CTCM. HSL compounds were tested at similar dilutions as for murine splenocytes in 200 μl of CTCM, containing 1 μg/ml of ConA and 100,000 PBMC. Human PBMC were incubated for 48 h at 37° C. in 5% CO2-air, followed by pulsing with 0.25 μCi [^3H]-thymidine (see above). After a further incubation of 24 h cells were harvested onto fibreglass filters and then counted in the presence of MicroScint-O with the Packard TopCount.
Concanavalin induced cell proliferation of human peripheral blood mononuclear cells (PBMC) was tracked, as described in I above, by a measurement of counts per minute using the scintillation counter. The inhibitory effect of an HSL compound being tested on cell proliferation was indicated by a reduction in counts per minute.
Columns B, C and D represent different sources of human PBMC samples used.

| Molecule | effect on LPS induced TNF-α secretion by human PBMC [2] | effect on ConA induced splenocyte proliferation (cpm vs concentration) (murine splenocytes) | effect on proliferation of human PBMC stimulated with Concanavalin A (cpm vs concentration) (human PBMC) | further results |
| --- | --- | --- | --- | --- |
| CCCCCCCCCC(=O)CC(=O)N[C@H]1CCOC1=O [Example 6, N-(3-Oxododecanoyl)-L-homoserine lactone] | inhibited the secretion of the T helper 1-supporting cytokine TNF-α | inhibits splenocyte proliferation | inhibited proliferation of human PBMC | effect on concavalin A mitogen stimulated proliferation of murine spleen cells (murine spleen cells): inhibiting; effect on TNF-a production by LPS-stimulated adherent murine peritoneal macrophages [1]: inhibiting |
| CCCCCCCCCCCC(=O)CC(=O)N[C@H]1CCOC1=O [Example 11, N-(3-Oxotetradecanoyl)-L-homoserine lactone] | inhibited the secretion of the T helper 1-supporting cytokine TNF-α | – | inhibited proliferation of human PBMC | – |
| N-(3-Hydroxy-9-tetradecenoyl)-L-homoserine lactone [Example 24] | – | – | – | IC50 (murine splenocytes; Experiment I, ConA 1 μg/ml, 100,000 spleen cells, read-out: IC50, inhibition of ConA induced murine splenocyte proliferation (column A)): 15 µM |
| CCCCCC(=O)CC(=O)N[C@H]1CCOC1=O [OOHL, N-(3-oxooctanoyl)-L-homoserine lactone] | – | failed to inhibit proliferation | – | – |
| CCCC(=O)CC(=O)N[C@H]1CCOC1=O [OHHL, N-(3-oxohexanoyl)-L-homoserine lactone] | difference in activity between OHHL and OdDHL is marked | – | – | – |
